{
  "source": "patent US20030212006A1",
  "about": "“Method for reducing free radical formation in healthy individuals undergoing hypoxic exercise and medical conditions with increased oxygen free radicals” (priority 2002, published 2003)",
  "format_in_all_cases": "in vivo, human",
  "key": {"[1]": {"experiment": "Reduced plasma glutathione (GSH) after a single cycling bout under hypoxic conditions", "details": "7 grams ribose before and after exercise; n=7 subjects; p=0.000", "experimental": "(§1) Seven healthy, moderately to highly conditioned subjects volunteered to participate in this randomized, blinded, crossover trial. All subjects were between the ages of 23 and 41 years of age, and each subject cycled in two distinct trial arms, a ribose phase and a control phase. One week separated each trial arm. Subjects ingested either 7 grams of ribose in 250 mL of water or just plain water, five minutes prior to the start of exercise and again within five minutes following exercise. The scheduled exercise was 25 minutes of cycling at a workload relating to the lactic acid threshold. Subjects inhaled a hypoxic gas mixture of 16% oxygen and 84% nitrogen through a one-way breathing valve during the exercise bout. Following the cycling exercise, subjects sat quietly for 60 minutes and breathed room air during the recovery phase. All tests were conducted at room temperature. […] A whole blood sample was analyzed for hemoglobin. […] Each frozen plasma sample was analyzed for total protein and uric acid levels. Plasma samples were also analyzed for reduced glutathione levels (GSH kit, Oxis Research, Portland, Oreg.) and volumes were corrected for potential fluid loss by measuring total protein values. The frozen urine samples were analyzed for MDA (MDA kit, Oxis Research, Portland, Oreg.). […]"}, "[2]": {"experiment": "Heart rate during a cycling bout under hypoxic conditions", "details": "n=7 subjects", "experimental": "Seven healthy, moderately to highly conditioned subjects volunteered to participate in this randomized, blinded, crossover trial. All subjects were between the ages of 23 and 41 years of age, and each subject cycled in two distinct trial arms, a ribose phase and a control phase. One week separated each trial arm. Subjects ingested either 7 grams of ribose in 250 mL of water or just plain water, five minutes prior to the start of exercise and again within five minutes following exercise. The scheduled exercise was 25 minutes of cycling at a workload relating to the lactic acid threshold. Subjects inhaled a hypoxic gas mixture of 16% oxygen and 84% nitrogen through a one-way breathing valve during the exercise bout. Following the cycling exercise, subjects sat quietly for 60 minutes and breathed room air during the recovery phase. All tests were conducted at room temperature. The cardiovascular parameters of heart rate and oxygen pulse saturation (SpO2) were collected at 9 minutes, 17 minutes, and 25 minutes of exercise. Oxygen pulse saturation was collected with a Nonin pulse oximeter (Nonin Medical Inc., Plymouth, Minn.). […] The 4.8% vs. 7.5% represents heart rates of 175 beats per minute (bpm) and 181 bpm for ribose and placebo (n=7 subjects)."}, "[3]": {"experiment": "Subjective ranking of exercise and recovery by blinded subjects", "experimental": "Seven healthy, moderately to highly conditioned subjects volunteered to participate in this randomized, blinded, crossover trial. All subjects were between the ages of 23 and 41 years of age, and each subject cycled in two distinct trial arms, a ribose phase and a control phase. One week separated each trial arm. Subjects ingested either 7 grams of ribose in 250 mL of water or just plain water, five minutes prior to the start of exercise and again within five minutes following exercise. The scheduled exercise was 25 minutes of cycling at a workload relating to the lactic acid threshold. Subjects inhaled a hypoxic gas mixture of 16% oxygen and 84% nitrogen through a one-way breathing valve during the exercise bout. Following the cycling exercise, subjects sat quietly for 60 minutes and breathed room air during the recovery phase. All tests were conducted at room temperature. […] During the control trial, subjects expressed strong desires to take a nap during the recovery period. Additionally, four of the subjects reported that after leaving the laboratory, they went home and took long (>2 hours) naps."}, "[4]": {"experiment": "Urinary MDA after a single cycling bout under hypoxic conditions (16% oxygen), crossover trial", "details": "7 grams ribose in 250 mL water before and after exercise; compared to the placebo; n=7 subjects; p=0.01", "experimental": "as §1"}},
  "data": [
    {"smiles": "O=C[C@H](O)[C@H](O)[C@H](O)CO", "note": "[ribose, D-ribose]", "values": [
      {"measurement": "Percent change in plasma GSH", "setting": "[1]", "result": "significantly lower"},
      {"measurement": "Heart rate", "setting": "[2]; during hypoxic exercise, placebo 181 bpm", "result": 175, "unit": "bpm"},
      {"measurement": "Percent change in heart rate during exercise (in words)", "setting": "[2]; ribose supplementation vs placebo, p=0.03", "result": "significantly less"},
      {"measurement": "Percent change in heart rate during exercise", "setting": "[2]; ribose supplementation, placebo 7.5%", "result": 4.8, "unit": "%"},
      {"measurement": "Blinded subjects who ranked the exercise easier and felt they had a faster recovery period", "setting": "[3]; after cycling when they ingested ribose", "result": "6 out of 7"},
      {"measurement": "Comments and symptoms observed during recovery", "setting": "[3]; recovery after hypoxic cycling when ribose was ingested", "result": "decreased lethargy"},
      {"measurement": "Percent change in urine MDA", "setting": "[4]", "result": "significantly lower"}
    ]}
  ]
}
